From patent US8129370B2, “Use of oxicam compounds” (Dritte PatentPortfolio Beteiligungsgesellschaft MBH & Co. KG, priority 2003, dated 2012)
Each block holds one compound with its values, some of them ahead of it.

Tests used:
[1] = tested on: amyloid precursor protein (APP); details: cited from earlier work
Aβ42 = details: WO 01/78721 A1; cited from earlier work
plasma half-life = details: in vivo
[2] = Pruss et al. 1989; cited from earlier work
COX-1 [3] = target: T1, COX-1 (Homo sapiens, UniProt P23219); experiment: inhibition of eicosanoid formation in HEL cells (COX-1); format: cell-based; design: eicosanoid formation in HEL cells (COX-1); endogenous in cells; host or cells: HEL cells; details: FIG. 7
T1 sequence (P23219 24-599): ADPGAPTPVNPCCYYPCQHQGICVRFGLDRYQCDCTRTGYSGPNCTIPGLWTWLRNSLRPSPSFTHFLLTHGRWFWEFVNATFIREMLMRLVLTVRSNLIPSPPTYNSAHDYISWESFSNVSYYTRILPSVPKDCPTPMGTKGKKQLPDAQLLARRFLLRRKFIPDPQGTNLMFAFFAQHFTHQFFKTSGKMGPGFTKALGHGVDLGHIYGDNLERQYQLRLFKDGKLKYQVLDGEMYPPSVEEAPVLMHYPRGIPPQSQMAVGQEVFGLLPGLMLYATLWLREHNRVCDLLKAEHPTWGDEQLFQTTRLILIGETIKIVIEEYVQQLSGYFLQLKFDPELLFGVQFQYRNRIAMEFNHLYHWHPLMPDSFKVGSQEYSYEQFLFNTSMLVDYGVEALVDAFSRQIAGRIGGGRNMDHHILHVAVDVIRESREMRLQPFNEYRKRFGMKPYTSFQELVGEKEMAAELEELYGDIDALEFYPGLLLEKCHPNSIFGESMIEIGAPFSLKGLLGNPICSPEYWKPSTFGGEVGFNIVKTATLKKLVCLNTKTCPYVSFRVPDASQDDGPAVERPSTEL

[4] = cited from earlier work
COX-2 [5] = target: T2, COX-2 (Homo sapiens, UniProt P35354); experiment: inhibition of eicosanoid formation in LPS-stimulated Mono Mac 6-cells (COX-2); format: cell-based; details: FIG. 7
T2 construct: LPS-stimulated Mono Mac 6-cells (COX-2); endogenous in cells; host or cells: LPS-stimulated Mono Mac 6 cells
T2 sequence (P35354 18-604): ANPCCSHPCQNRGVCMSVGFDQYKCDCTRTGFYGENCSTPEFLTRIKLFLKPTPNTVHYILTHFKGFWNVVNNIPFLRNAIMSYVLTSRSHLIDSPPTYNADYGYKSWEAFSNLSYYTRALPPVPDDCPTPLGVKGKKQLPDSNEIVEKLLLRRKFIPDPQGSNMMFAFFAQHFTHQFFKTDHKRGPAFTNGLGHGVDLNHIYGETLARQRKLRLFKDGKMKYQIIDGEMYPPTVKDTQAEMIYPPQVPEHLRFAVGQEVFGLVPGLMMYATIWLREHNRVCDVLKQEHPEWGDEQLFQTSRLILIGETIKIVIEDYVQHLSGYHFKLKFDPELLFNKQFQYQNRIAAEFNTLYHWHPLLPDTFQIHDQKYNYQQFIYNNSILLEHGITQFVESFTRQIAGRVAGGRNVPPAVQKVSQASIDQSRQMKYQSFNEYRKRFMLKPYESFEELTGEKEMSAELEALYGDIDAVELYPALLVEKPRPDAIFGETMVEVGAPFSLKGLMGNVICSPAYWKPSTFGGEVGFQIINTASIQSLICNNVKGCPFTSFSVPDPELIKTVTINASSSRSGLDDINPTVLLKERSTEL

COX-1 [6] = target: T1, COX-1; experiment: inhibition of COX-1 (isozyme of the eicosanoid metabolism); format: biochemical; design: eicosanoid formation in HEL cells (COX-1); endogenous in cells; host or cells: HEL cells
COX-2 [7] = target: T2, COX-2; experiment: inhibition of COX-2 (isozyme of the eicosanoid metabolism); format: biochemical

SMILES: CC(C)Cc1ccc(C(C)C(=O)O)cc1 (stereo not shown) [Ibuprofen]
portion of the amyloid β-42 peptide [1]: lowered
portion of the non-amyloidogenic soluble APP [1]: increased

SMILES: Cc1cc(NC(=O)C2=C(O)c3ccccc3S(=O)(=O)N2C)no1 [isoxicam]
influence on the expression of Aβ42 (Aβ42): do not influence the expression of Aβ42 and even increase the expression thereof, respectively

plasma half-life (plasma half-life): short
inhibition of the eicosanoid formation (COX-1 [3]): inhibition
inhibition of the eicosanoid formation (COX-2 [5]): inhibition
inhibition of COX-1 (COX-1 [6]): inhibits
inhibition of COX-2 (COX-2 [7]): inhibits
SMILES: CN1C(C(=O)Nc2ccccn2)=C(O)c2sc(Cl)cc2S1(=O)=O [lornoxicam]
crossing the blood-brain barrier [2]: not capable of crossing the blood-brain barrier
severe undesired events reported ([4]; in one million of prescriptions): less than 10
gastro-intestinal and other tolerance ([4]; in vivo): good
side-effects found during observation of usage ([4]; in vivo): below 0.05%

SMILES: CN1C(C(=O)Nc2ccccn2)=C(O)c2ccccc2S1(=O)=O [peroxicam]
influence on the expression of Aβ42 (Aβ42): do not influence the expression of Aβ42 and even increase the expression thereof, respectively
